# Tests used:
# [1] = target: T1, human recombinant PDE5 (Homo sapiens, UniProt O76074); experiment: Inhibitory effect on cGMP-PDE (PDE5 IC50, one-step assay); format: biochemical; conditions: in vitro
# T1 construct: host or cells: Saccharomyces cerevisiae BJ2-54 (exemplary method)
# Description: The compounds of structural formula (I) were tested for an ability to inhibit PDE5. The ability of a compound to inhibit PDE5 activity is related to the IC50 value for the compound, i.e., the concentration of inhibitor required for 50% inhibition of enzyme activity. The IC50 value for compounds of structural formula (I) were determined using recombinant human PDE5.
# cGMP-PDE activity of compounds of the present invention was measured using a one-step assay adapted from Wells et al., Biochim. Biophys. Acta, 384, 430 (1975). The reaction medium contained 50 mM Tris-HCl, pH 7.5, 5 mM magnesium acetate, 250 μg/ml 5′-Nucleotidase, 1 mM EGTA, and 0.15 μM 8-[H^3]-cGMP. Unless otherwise indicated, the enzyme used was a human recombinant PDE5 (ICOS Corp., Bothell, Wash.).
# Compounds of the invention were dissolved in DMSO finally present at 2% in the assay.
SMILES,melting point,IC50 [1]
"CN1C(=O)[C@H]2Cc3c([nH]c4ccccc34)C(c3ccc4c(c3)OCO4)N2C(=O)C1(C)C (mixture of isomers) [Example 1, (12a,R)-6-Benzo[1,3]dioxol-5-yl,2,3,3-trimethyl-2,3,6,7,12,12a-hexahydropyrazino[1′,2′:1,6]-pyrido[3,4-b]indole-1,4-dione]",225 to 235 °C,161 nM
"NC(=O)CC[C@@H]1NC(=O)[C@H]2Cc3c([nH]c4ccccc34)[C@@H](c3ccc4c(c3)OCO4)N2C1=O [Example 2, 3-((3S,6R,12aR)-6-Benzo[1,3]dioxol-5-yl-1,4-dioxo-1,2,3,4,6,7,12,12a-octahydropyrazino[1′,2′:1,6]-pyrido[3,4-b]indo-3-yl)propionamide]",78 to 82 °C,2.2 nM
"O=C1NNC(=O)N2[C@H](c3ccc4c(c3)OCO4)c3[nH]c4ccccc4c3C[C@H]12 [Example 3, (5aR,10R)-10-Benzo[1,3]dioxol-5-yl-5,5a,7,8,10,11-hexahydro-7,8,9a,11-tetraazabenzo[b]fluorene-6,9-dione]",188 to 194 °C,113 nM
"CN1CCC(=O)N2[C@H](c3ccc4c(c3)OCO4)c3[nH]c4ccccc4c3C[C@H]2C1=O [Example 4, (5aS,11R)-11-Benzo[1,3]dioxol-5-yl-7-methyl-5,5a,8,9,11,12-hexahydro-7H-7,10a,12-triaza-cyclohepta[b]fluorene-6,10-dione]",179 to 182 °C,593 nM
CC(C)(C)OC(=O)CC[C@@H]1NC(=O)[C@H]2Cc3c([nH]c4ccccc34)[C@@H](c3ccc4c(c3)OCO4)N2C1=O [Example 5],222 to 227 °C,0.6 nM
"O=C(O)CC[C@@H]1NC(=O)[C@H]2Cc3c([nH]c4ccccc34)[C@@H](c3ccc4c(c3)OCO4)N2C1=O [Example 6, 3-((3S,6R,12aR)-6-Benzo[1,3]dioxol-5-yl-1,4-dioxo-1,2,3,4,6,7,12,12a-octahydropyrazino[1′,2′:1,6]pyrido[3,4-b]indole-3-yl)propionic acid]",–,1 nM
"CC(C)OC(=O)CC[C@@H]1NC(=O)[C@H]2Cc3c([nH]c4ccccc34)[C@@H](c3ccc4c(c3)OCO4)N2C1=O [Example 7, 3-((3S,6R,12aR)-6-Benzo[1,3]dioxol-5-yl-1,4-dioxo-1,2,3,4,6,7,12,12a-octahydropyrazino[1′,2′:1,6]pyrido[3,4-b]indol-3-yl)-propionic acid isopropyl ester]",–,0.2 nM
"O=C1N[C@H](CO)C(=O)N2[C@H](c3ccc4c(c3)OCO4)c3[nH]c4ccccc4c3C[C@H]12 [Example 8, (3R,6R,12aR)-6-Benzo[1,3]dioxo-5-yl-3-hydroxymethyl-2,3,6,7,12,12a-hexahydropyrazino[1′,2′:1,;6]pyrido[3,4-b]indole-1,4-dione]",194 to 200 °C,28 nM
